Laboratory results reported in ChEMBL document CHEMBL1201861, “Genomics of Drug Sensitity in Cancer screening data, Wellcome Trust Sanger Institute”.

Experiments:
[1] = test system: COR-L279; assay: SANGER: Inhibition of human COR-L279 cell growth in a cell viability assay.; format: functional, cell-based
[2] = test system: DG-75; assay: cells; format: functional, cell-based; details: Homo sapiens;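 also: growth inhibition of DG-75 cells, read out with a cell viability assay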
Description: SANGER: Inhibition of human DG-75 cell growth in a cell viability assay.

[3] = test system: Daudi; assay: cells; format: functional, cell-based; details: Homo sapiens;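 also: growth inhibition of Daudi cells, read out by a viability assay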
Description: SANGER: Inhibition of human Daudi cell growth in a cell viability assay.

[4] = test system: EB-3; assay: cells; format: functional, cell-based; details: Homo sapiens;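 also: human EB-3 cells, growth inhibition read out via a cell viability assay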
Description: SANGER: Inhibition of human EB-3 cell growth in a cell viability assay.

[5] = test system: GDM-1; assay: cells; format: functional, cell-based; details: Homo sapiens;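 also: cell viability readout used to measure growth inhibition of human GDM-1 cells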
Description: SANGER: Inhibition of human GDM-1 cell growth in a cell viability assay.

[6] = test system: HCC1599; assay: cells; format: functional, cell-based; details: Homo sapiens;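 also: growth inhibition of HCC1599 cells, read out in a cell viability assay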
Description: SANGER: Inhibition of human HCC1599 cell growth in a cell viability assay.

[7] = test system: HuO9; assay: cells; format: functional, cell-based, Homo sapiens; details: Homo sapiens, HuO9;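 also: growth inhibition of HuO9 cells, read out with a cell viability assay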
Description: SANGER: Inhibition of human HuO9 cell growth in a cell viability assay.

[8] = test system: JIYOYE; assay: cells; format: functional, cell-based; details: Homo sapiens
Description: SANGER: Inhibition of human JiyoyeP-2003 cell growth in a cell viability assay.

[9] = test system: K052; assay: cells; format: functional, cell-based; details: Homo sapiens;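 also: Read-out from a cell viability assay, IC50 reflecting suppression of K052 cell growth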
Description: SANGER: Inhibition of human K052 cell growth in a cell viability assay.

[10] = test system: KARPAS-422; assay: cells; format: functional, cell-based; details: Homo sapiens
Description: SANGER: Inhibition of human KARPAS-422 cell growth in a cell viability assay.

[11] = test system: KMS-12-PE; assay: cells; format: functional, cell-based; details: Homo sapiens;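 also: growth inhibition of human KMS-12-PE cells, measured with a cell viability assay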
Description: SANGER: Inhibition of human KMS-12-PE cell growth in a cell viability assay.

[12] = test system: LC-1F; assay: cells; format: functional, cell-based; details: Homo sapiens;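 also: growth inhibition of human LC-1F cells, read out with a cell viability assay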
Description: SANGER: Inhibition of human LC-1F cell growth in a cell viability assay.

[13] = test system: LOUCY; assay: cells; format: functional, cell-based; details: Homo sapiens;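 also: growth inhibition of human LOUCY cells, read out with a cell viability assay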
Description: SANGER: Inhibition of human LOUCY cell growth in a cell viability assay.

[14] = test system: LP-1; assay: cells; format: functional, cell-based; details: Homo sapiens;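 also: growth inhibition of human LP-1 cells, with the read-out taken from a cell viability assay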
Description: SANGER: Inhibition of human LP-1 cell growth in a cell viability assay.

[15] = test system: LU-165; assay: cells; format: functional, cell-based; details: Homo sapiens
Description: SANGER: Inhibition of human LU-165 cell growth in a cell viability assay.

[16] = test system: MDA-MB-134-VI; assay: cells; format: functional, cell-based; details: Homo sapiens
Description: SANGER: Inhibition of human MDA-MB-134-VI cell growth in a cell viability assay.

[17] = test system: MHH-CALL-2; assay: cells; format: functional, cell-based; details: Homo sapiens;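 also: growth inhibition of the cell line, read out in a cell viability assay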
Description: SANGER: Inhibition of human MHH-CALL-2 cell growth in a cell viability assay.

[18] = test system: MONO-MAC-6; assay: cells; format: functional, cell-based; details: Homo sapiens;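 also: cell viability assay measuring growth inhibition of human MONO-MAC-6 cells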
Description: SANGER: Inhibition of human MONO-MAC-6 cell growth in a cell viability assay.

[19] = test system: NCI-H1417; assay: cells; format: functional, cell-based; details: Homo sapiens;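 also: human NCI-H1417 cells, growth inhibition determined with a cell viability readout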
Description: SANGER: Inhibition of human NCI-H1417 cell growth in a cell viability assay.

[20] = test system: NCI-H1436; assay: cells; format: functional, cell-based; details: Homo sapiens;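 also: growth suppression of human NCI-H1436 cells, determined with a cell viability readout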
Description: SANGER: Inhibition of human NCI-H1436 cell growth in a cell viability assay.

[21] = test system: NCI-H1694; assay: cells; format: functional, cell-based; details: Homo sapiens;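 also: cell viability assay measuring inhibition of growth in human NCI-H1694 cells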
Description: SANGER: Inhibition of human NCI-H1694 cell growth in a cell viability assay.

[22] = test system: NCI-H1703; assay: cells; format: functional, cell-based, Homo sapiens; details: Homo sapiens, NCI-H1703;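 also: growth inhibition of NCI-H1703 cells, read out via a cell viability assay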
Description: SANGER: Inhibition of human NCI-H1703 cell growth in a cell viability assay.

[23] = test system: NCI-H1882; assay: cells; format: functional, cell-based; details: Homo sapiens;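 also: growth inhibition of the cell line, determined with a viability assay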
Description: SANGER: Inhibition of human NCI-H1882 cell growth in a cell viability assay.

[24] = test system: NCI-H2009; assay: cells; format: functional, cell-based, Homo sapiens; details: Homo sapiens, NCI-H2009;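 also: cell viability assay measuring inhibition of NCI-H2009 cell growth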
Description: SANGER: Inhibition of human NCI-H2009 cell growth in a cell viability assay.

[25] = test system: NCI-H2081; assay: cells; format: functional, cell-based; details: Homo sapiens;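 also: growth inhibition of human NCI-H2081 cells, read out with a cell viability assay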
Description: SANGER: Inhibition of human NCI-H2081 cell growth in a cell viability assay.

[26] = test system: NCI-H2141; assay: cells; format: functional, cell-based; details: Homo sapiens;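 also: growth inhibition of human NCI-H2141 cells, read out with a cell viability assay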
Description: SANGER: Inhibition of human NCI-H2141 cell growth in a cell viability assay.

[27] = test system: NCI-H2171; assay: cells; format: functional, cell-based; details: Homo sapiens;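 also: growth inhibition of human NCI-H2171 cells, read out by a cell viability assay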
Description: SANGER: Inhibition of human NCI-H2171 cell growth in a cell viability assay.

[28] = test system: NCI-H630; assay: cells; format: functional, cell-based, Homo sapiens; details: Homo sapiens, NCI-H630;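 also: growth inhibition of NCI-H630 cells, read out with a cell viability assay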
Description: SANGER: Inhibition of human NCI-H630 cell growth in a cell viability assay.

[29] = test system: NCI-H719; assay: cells; format: functional, cell-based; details: Homo sapiens;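 also: growth inhibition of the cultured cell line, read out with a viability assay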
Description: SANGER: Inhibition of human NCI-H719 cell growth in a cell viability assay.

[30] = test system: SNU-16; assay: cells; format: functional, cell-based; details: Homo sapiens;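 also: growth inhibition of human SNU-16 cells, determined with a cell viability readout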
Description: SANGER: Inhibition of human NCI-SNU-16 cell growth in a cell viability assay.

[31] = test system: P31-FUJ; assay: cells; format: functional, cell-based; details: Homo sapiens;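 also: growth inhibition of P31-FUJ cells, read out with a viability assay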
Description: SANGER: Inhibition of human P31-FUJ cell growth in a cell viability assay.

[32] = test system: RL; assay: cells; format: functional, cell-based; details: Homo sapiens
Description: SANGER: Inhibition of human RL cell growth in a cell viability assay.

[33] = test system: RPMI-6666; assay: cells; format: functional, cell-based; details: Homo sapiens
Description: SANGER: Inhibition of human RPMI-6666 cell growth in a cell viability assay.

[34] = test system: Raji; assay: cells; format: functional, cell-based; details: Homo sapiens;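 also: cell viability assay measuring inhibition of Raji cell growth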
Description: SANGER: Inhibition of human Raji cell growth in a cell viability assay.

[35] = test system: SCC-3; assay: cells; format: functional, cell-based; details: Homo sapiens;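 also: cell viability assay measuring inhibition of SCC-3 cell growth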
Description: SANGER: Inhibition of human SCC-3 cell growth in a cell viability assay.

[36] = test system: SCLC-21H; assay: cells; format: functional, cell-based; details: Homo sapiens;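 also: growth inhibition of cultured human SCLC-21H cells, read out with a cell viability assay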
Description: SANGER: Inhibition of human SCLC-21H cell growth in a cell viability assay.

[37] = test system: SJRH30; assay: cells; format: functional, cell-based; details: Homo sapiens;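 also: growth inhibition of human SJRH30 cells, read out with a cell viability assay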
Description: SANGER: Inhibition of human SJRH30 cell growth in a cell viability assay.

[38] = test system: SK-MM-2; assay: cells; format: functional, cell-based; details: Homo sapiens;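 also: growth inhibition of human SK-MM-2 cells, read out with a cell viability assay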
Description: SANGER: Inhibition of human SK-MM-2 cell growth in a cell viability assay.

[39] = test system: SU-DHL-1; assay: SANGER: Inhibition of human SU-DHL-1 cell growth in a cell viability assay.; format: functional, cell-based
[40] = test system: SUP-T1; assay: cells; format: functional, cell-based; details: Homo sapiens;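 also: growth inhibition of human SUP-T1 cells, read out as cell viability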
Description: SANGER: Inhibition of human SUP-T1 cell growth in a cell viability assay.

[41] = test system: ARH-77; assay: cells; format: functional, cell-based; details: Homo sapiens;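 also: growth inhibition of ARH-77 cells, read out by a cell viability assay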
Description: SANGER: Inhibition of human ARH-77 cell growth in a cell viability assay.

[42] = test system: BL-70; assay: SANGER: Inhibition of human BL-70 cell growth in a cell viability assay.; format: functional, cell-based
[43] = test system: BOKU; assay: cells; format: functional, cell-based; details: Homo sapiens;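 also: growth inhibition of the human BOKU cell line, read out by a cell viability assay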
Description: SANGER: Inhibition of human BOKU cell growth in a cell viability assay.

[44] = test system: WSU-NHL; assay: cells; format: functional, cell-based; details: Homo sapiens;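 also: growth inhibition of human WSU-NHL cells, read out with a cell viability assay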
Description: SANGER: Inhibition of human WSU-NHL cell growth in a cell viability assay.

[45] = test system: CESS; assay: SANGER: Inhibition of human CESS cell growth in a cell viability assay.; format: functional, cell-based
[46] = test system: D-423MG; assay: cells; format: functional, cell-based; details: Homo sapiens
Description: SANGER: Inhibition of human D-423MG cell growth in a cell viability assay.

[47] = test system: D-566MG; assay: cells; format: functional, cell-based; details: Homo sapiens
[48] = test system: EW-22; assay: cells; format: functional, cell-based; details: Homo sapiens;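 also: growth inhibition of the EW-22 cell line, measured with a cell viability readout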
Description: SANGER: Inhibition of human EW-22 cell growth in a cell viability assay.

[49] = test system: KNS-62; assay: cells; format: functional, cell-based; details: Homo sapiens;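 also: inhibition of cell growth, read out with a cell viability assay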
Description: SANGER: Inhibition of human KNS-62 cell growth in a cell viability assay.

[50] = test system: NBsusSR; assay: cells; format: functional, cell-based; details: Homo sapiens;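 also: growth inhibition of the human cell line, read out with a cell viability assay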
Description: SANGER: Inhibition of human NBsusSR cell growth in a cell viability assay.

[51] = test system: NCI-H1048; assay: cells; format: functional, cell-based; details: Homo sapiens;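 also: growth inhibition of human NCI-H1048 cells, read out with a cell viability assay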
Description: SANGER: Inhibition of human NCI-H1048 cell growth in a cell viability assay.

[52] = test system: NCI-H1666; assay: cells; format: functional, cell-based; details: Homo sapiens;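 also: growth inhibition of the cell line, read out with a cell viability assay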
Description: SANGER: Inhibition of human NCI-H1666 cell growth in a cell viability assay.

[53] = test system: NCI-H2029; assay: cells; format: functional, cell-based; details: Homo sapiens;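 also: Read-out is a viability assay on the cultured cells, and IC50 is the concentration that suppresses cell growth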
Description: SANGER: Inhibition of human NCI-H2029 cell growth in a cell viability assay.

[54] = test system: NCI-H2291; assay: cells; format: functional, cell-based; details: Homo sapiens
Description: SANGER: Inhibition of human NCI-H2291 cell growth in a cell viability assay.

[55] = test system: SW 1116; assay: cells; format: functional, cell-based; details: Homo sapiens;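 also: growth inhibition of SW1116 cells, read out with a cell viability assay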
Description: SANGER: Inhibition of human SW1116 cell growth in a cell viability assay.

[56] = test system: SW900; assay: cells; format: functional, cell-based; details: Homo sapiens;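 also: IC50 is the concentration that inhibits SW900 cell growth, measured by a cell viability assay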
Description: SANGER: Inhibition of human SW900 cell growth in a cell viability assay.

[57] = test system: A549; assay: cells; format: functional, cell-based; details: Homo sapiens;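 also: growth inhibition of A549 cells, read out with a cell viability assay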
Description: SANGER: Inhibition of human A549 cell growth in a cell viability assay.

[58] = test system: BALL-1; assay: cells; format: functional, cell-based; details: Homo sapiens;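 also: growth inhibition of BALL-1 cells, read out with a cell viability assay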
Description: SANGER: Inhibition of human BALL-1 cell growth in a cell viability assay.

[59] = test system: BT-549; assay: cells; format: functional, cell-based; details: Homo sapiens
Description: SANGER: Inhibition of human BT-549 cell growth in a cell viability assay.

[60] = test system: TGBC11TKB; assay: cells; format: functional, cell-based; details: Homo sapiens;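 also: growth inhibition of human TGBC11TKB cells, measured by a cell viability assay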
Description: SANGER: Inhibition of human TGBC11TKB cell growth in a cell viability assay.

[61] = test system: TI-73; assay: cells; format: functional, cell-based; details: Homo sapiens;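 also: cell viability assay measuring how much compounds suppress growth of the cultured cell line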
Description: SANGER: Inhibition of human TI-73 cell growth in a cell viability assay.

CN(c1ncccc1CNc1nc(Nc2ccc3c(c2)CC(=O)N3)ncc1C(F)(F)F)S(C)(=O)=O [PF-00562271]
IC50 [1]: > 2560 nM | IC50 [2]: > 2560 nM | IC50 [3]: > 2560 nM | IC50 [4]: > 2560 nM | IC50 [5]: > 2560 nM | IC50 [6]: > 2560 nM | IC50 [7]: > 2560 nM | IC50 [8]: > 2560 nM | IC50 [9]: > 2560 nM | IC50 [10]: > 2560 nM | IC50 [11]: > 2560 nM | IC50 [12]: > 2560 nM | IC50 [13]: 2260 nM | IC50 [14]: > 2560 nM | IC50 [15]: > 2560 nM | IC50 [16]: > 2560 nM | IC50 [17]: > 2560 nM | IC50 [18]: 2410 nM | IC50 [19]: > 2560 nM | IC50 [20]: > 2560 nM | IC50 [21]: > 2560 nM | IC50 [22]: > 2560 nM | IC50 [23]: > 2560 nM | IC50 [24]: > 2560 nM | IC50 [25]: > 2560 nM | IC50 [26]: > 2560 nM | IC50 [27]: > 2560 nM | IC50 [28]: > 2560 nM | IC50 [29]: > 2560 nM | IC50 [30]: > 2560 nM | IC50 [31]: > 2560 nM | IC50 [32]: > 2560 nM | IC50 [33]: > 2560 nM | IC50 [34]: > 2560 nM | IC50 [35]: > 2560 nM | IC50 [36]: > 2560 nM | IC50 [37]: > 2560 nM | IC50 [38]: > 2560 nM | IC50 [39]: > 2560 nM | IC50 [40]: > 2560 nM | IC50 [41]: > 2560 nM | IC50 [42]: > 2560 nM | IC50 [43]: > 2560 nM | IC50 [44]: > 2560 nM | IC50 [45]: > 2560 nM

Cn1cc(C2=C(c3ccc(Cl)cc3Cl)C(=O)NC2=O)c2ccccc21 [SB-216763]
IC50 [46]: > 10 µM | IC50 [47]: > 10 µM | IC50 [48]: > 10 µM | IC50 [7]: > 10000 nM | IC50 [49]: > 10 µM | IC50 [50]: > 10 µM | IC50 [51]: > 10 µM | IC50 [52]: > 10 µM | IC50 [22]: > 10000 nM | IC50 [24]: > 10000 nM | IC50 [53]: > 10 µM | IC50 [54]: > 10 µM | IC50 [28]: > 10000 nM | IC50 [37]: > 10000 nM | IC50 [55]: > 10 µM | IC50 [56]: > 10 µM | IC50 [57]: > 10 µM | IC50 [58]: > 10 µM | IC50 [59]: 5.29 µM | IC50 [60]: > 10 µM | IC50 [61]: > 10 µM

CCC1=C[C@@H]2CN(C1)Cc1c([nH]c3ccccc13)[C@@](C(=O)OC)(c1cc3c(cc1OC)N(C)[C@H]1[C@@](O)(C(=O)OC)[C@H](OC(C)=O)[C@]4(CC)C=CCN5CC[C@]31[C@@H]54)C2 [VINORELBINE]
IC50 [1]: > 64 nM | IC50 [2]: > 64 nM | IC50 [3]: > 64 nM | IC50 [4]: > 64 nM | IC50 [5]: 24.6 nM | IC50 [6]: 10.6 nM | IC50 [7]: 7.09 nM | IC50 [8]: 10.7 nM | IC50 [9]: 21.2 nM | IC50 [10]: 23.3 nM | IC50 [11]: 60.1 nM | IC50 [12]: 44.8 nM | IC50 [13]: 9.69 nM | IC50 [14]: > 64 nM | IC50 [15]: > 64 nM | IC50 [16]: > 64 nM | IC50 [17]: > 64 nM | IC50 [18]: 20.6 nM | IC50 [19]: 24.1 nM | IC50 [20]: 13.6 nM | IC50 [21]: 44.4 nM | IC50 [22]: 2.83 nM | IC50 [23]: 36.5 nM | IC50 [24]: 8.46 nM | IC50 [25]: 33.6 nM | IC50 [26]: 39 nM | IC50 [27]: > 64 nM | IC50 [28]: 45.5 nM | IC50 [29]: > 64 nM | IC50 [30]: 38.6 nM | IC50 [31]: > 64 nM | IC50 [32]: > 64 nM | IC50 [33]: 6.86 nM | IC50 [34]: > 64 nM | IC50 [35]: > 64 nM | IC50 [36]: > 64 nM | IC50 [37]: 29.3 nM | IC50 [38]: > 64 nM | IC50 [39]: 9.45 nM | IC50 [40]: 4.72 nM | IC50 [41]: 17.8 nM | IC50 [42]: 3.16 nM | IC50 [43]: > 64 nM | IC50 [44]: 33.7 nM | IC50 [45]: 5.04 nM
